{"source": "paper PMC5520057", "about": "“Modulation of nongenomic activation of PI3K signalling by tetramerization of N-terminally-cleaved RXRα” (Nature Communications, 2017)", "key": {"RXRα-LBD/Q275E": {"system": "RXRα-LBD/Q275E", "test": "Non-denaturing gel electrophoresis, Q275E mutant", "format": "biochemical, human", "settings": "K-80003 (20 μM), 3 h at 4 °C", "method": "(§1) The human RXRα LBD (residues Thr223 to Thr462) cloned as an N-terminal histidine-tagged fusion protein in pET15b expression vector was expressed in Escherichia coli BL21 strain (Stratagene). After sonication, cell extract was incubated with the His60 Ni Superflow resin, and His-tagged RXRα-LBD-resin complexes were washed, eluted and concentrated to 5 mg ml^−1 for subsequent trails. For crystallization experiment, bovine thrombin (Sigma) was used to cleave the His tag from the purified His-tagged RXRα-LBD. The resulting His tag was removed on the Resource-Q column (GE) using 0.1–1 M NaCl gradient and the Tris-Cl pH 8 buffer. RXRα-LDB was further purified using gel filtration on a Superdex 200 2660 column (GE) pre-equilibrated with the 75 mM NaCl, 20 mM Tris-Cl buffer (pH 8)."}, "MCF-7 xenograft tumours": {"system": "MCF-7 xenograft tumours", "test": "MCF-7/tRXRα xenograft tumours, western blotting", "format": "in vivo, nude mice", "settings": "MCF-7/tRXRα tumour; K-80003 20 mg kg^−1 i.p., 12 days", "method": "(§2) Proteins or cell lysates were electrophoresed by SDS-PAGE gel and transferred to polyvinylidene difluoride (PVDF) membrane. The membranes were blocked with 5% skimmed milk in TBST (50 mM Tris-HCl (pH 7.4), 150 mM NaCl and 0.1% Tween20) for 1 h, then incubated with primary antibodies and secondary antibodies and detected using ECL system (Thermo). The dilutions of the primary antibodies were anti-RXRα (ΔN197, Santa Cruz) in 1:1,000, anti-PARP (H-250, Santa Cruz) in 1:3,000, anti-p85α (Millipore) in 1:1,000, anti-p-AKT (D9E, Cell Signaling Technology) in 1:1000, anti-AKT1/2/3 (H-136, Santa Cruz) in 1:1,000, anti-β-actin (Sigma) in 1:5,000, anti-c-myc (9E10, Santa Cruz) in 1:3,000, anti-HA (F-7, Santa Cruz) in 1:3,000, anti-Flag (F1804, Sigma) in 1:3,000. Images of all uncropped western blots can be found in Supplementary Figs 10–14.\n(§3) For nude mice xenograft study, Myc-RXRα and Myc-tRXRα cloned into pcdna3.0 vector were stably transfected into MCF-7 cells, and the resulting stable clones and control clone (2 × 10^6 cells in 100 μl) were injected subcutaneously into nude mice (BALB/c, SPF grade, 16–18 g, 4–5-week old). For drug treatment, mice were intraperitoneally injected (i.p.) daily with K-80003 (20 mg kg^−1) diluted in Tween-80 or vehicle (tween-80). Body weight and tumour size were measured every 2 days. […]"}, "tRXRα [1]": {"system": "tRXRα", "test": "Nuclear/cytoplasmic fractionation with BS3 crosslinking", "format": "cell-based", "settings": "HEK293T cells, K-80003 (5 × 10^−6 M) for 6 h, one of three similar experiments", "method": "Cell lysates were then prepared and incubated with bis[sulfosuccinimidyl] suberate (BS3, Pierce) dissolved in dimethyl sulfoxide to a final concentration of 1 mM. The reactions were stopped with protein gel loading buffer. Samples were resolved by SDS/PAGE in 8% acrylamide gels and protein bands were visualized by western blotting.\nas §2"}, "RXRα-LBD": {"biological_target": "T1, RXRα-LBD (Homo sapiens, UniProt P19793)", "T1 construct": "The human RXRα LBD (residues Thr223 to Thr462); made in house; host or cells: Escherichia coli BL21", "T1 sequence (P19793 223-462)": "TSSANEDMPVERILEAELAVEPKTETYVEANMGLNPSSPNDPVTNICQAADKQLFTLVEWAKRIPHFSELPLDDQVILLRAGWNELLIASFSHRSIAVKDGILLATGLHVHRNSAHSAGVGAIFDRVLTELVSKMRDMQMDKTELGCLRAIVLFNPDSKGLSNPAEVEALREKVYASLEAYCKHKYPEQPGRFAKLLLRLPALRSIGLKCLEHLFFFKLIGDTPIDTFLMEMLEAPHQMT", "test": "Isothermal titration calorimetry (ITC), RXRα-LBD", "format": "binding", "settings": "25 °C, protein 50 μM in 25 mM Tris-HCl, pH 7.5, 150 mM NaCl, 0.1% DMSO, compound 1 mM", "method": "as §1\nBinding of compounds to RXRα-LBD or mutant was studied in […] at 25 °C using isothermal titration calorimetry (ITC) assay that measures the heat either released or absorbed during binding. The purified His-tagged RXRα-LBD or mutant protein (50 μM in 25 mM Tris-HCl, pH 7.5, 150 mM NaCl, 0.1% DMSO) was placed in the sample cell of MicroCal VP-ITC titration calorimeter. The compounds to be studied were diluted to a concentration of 1 mM in the same buffer. All solutions were degassed before the titrations. […] Calorimetric data were analysed using MicroCal Origin software (version 7.0)."}, "[2]": {"system": "p85α / tRXRα/R316E interaction", "test": "coIP, p85α with tRXRα/R316E", "format": "cell-based", "settings": "HEK293T cells; K-80003 (5 × 10^−6 M) for 6 h; coIP anti-HA", "quoted_text": "For coIP assay[29], HEK293T cells grown in 10 cm dishes were transfected with various plasmids. Cells were lysed in 1 ml of lysis buffer (20 mM Tris (pH 7.5), 150 mM NaCl, 1% Triton X-100, 1 mM EDTA, 30 mM NaF, 2 mM sodium pyrophosphate) with a cocktail of proteinase inhibitors (Roche). Lysates were incubated with the appropriate antibody for 12 h at 4 °C and subsequently incubated with protein A-Sepharose beads for 1 h. The immunoprecipitates were collected and washed three times with lysis buffer. The protein–antibody complexes recovered on beads were subjected to immunoblotting using appropriate antibodies after separation by SDS-PAGE. Input represents 5% of cell lysates used for coIP assays."}, "tRXRα [3]": {"system": "tRXRα", "test": "MCF-7/tRXRα xenograft tumours, immunostaining", "format": "in vivo", "settings": "nude mice; K-80003 20 mg kg^−1 i.p., 12 days; anti-Myc", "method": "Cells mounted on glass slides or tumour tissue frozen sections (5-μm-thick) were washed with PBS and fixed in 4% paraformaldehyde (PFA) for 15 min and permeabilized with PBS containing 0.1% Triton X-100 for 15 min. Fixed cells or tumour tissues were blocked with 5 mg ml^−1 BSA in PBS for 30 min at room temperature, followed with incubation with primary antibodies for 3 h and secondary antibodies at room temperature for 1 h and co-stained with 4′6′-diamidino-2-phenylindole (DAPI) to visualize nuclei. The images were taken under an LSM-510 confocal laser scanning microscope system (Carl Zeiss).\nas §3, with “days. Mice were killed after 12-day drug treatment and the tumours removed for various assessments.” for “days.”"}, "RXRα-LBD/R316E": {"system": "RXRα-LBD/R316E", "test": "Non-denaturing gel electrophoresis, R316E mutant", "format": "biochemical, human", "settings": "9-cis-RA (0.5 μM) or K-80003 (20 μM), 3 h at 4 °C", "method": "as §1"}, "tRXRα [4]": {"system": "tRXRα", "parameters": "method as in PMID 20541701", "settings": "cited from earlier work"}}, "data": [{"compound": "CC1=C(CC(=O)O)c2cc(F)ccc2/C1=C\\c1ccc(C(C)C)cc1", "note": "[K-80003]", "values": [{"measurement": "effect on tetramerization of Q275E mutant", "setting": "RXRα-LBD/Q275E", "result": "impaired the tetramerization of respective mutants by K-80003"}, {"measurement": "AKT activation in tumours", "setting": "MCF-7 xenograft tumours", "result": "reduced AKT activation"}, {"measurement": "PARP cleavage in tumours", "setting": "MCF-7 xenograft tumours", "result": "enhanced PARP cleavage"}, {"measurement": "distribution of tetrameric tRXRα", "setting": "tRXRα [1]", "result": "found exclusively in the nuclear fraction"}, {"measurement": "N (stoichiometry)", "setting": "RXRα-LBD", "result": 1.52}, {"measurement": "modulation of tRXRα/R316E interaction with p85α", "setting": "[2]", "result": "failed to modulate the interaction of both mutants with p85α"}, {"measurement": "subcellular localization of tRXRα in xenograft tumours", "setting": "tRXRα [3]", "result": "a significant amount of tRXRα was found in the nucleus"}, {"measurement": "effect on oligomeric state of RXRα-LBD/R316E", "setting": "RXRα-LBD/R316E", "result": "exhibited mainly as a tetramer independent of the presence of either 9-cis-RA or K-80003"}, {"measurement": "binding to tRXRα", "setting": "tRXRα [4]", "result": "binds to tRXRα"}]}]}
